Source: patent US6274718A (priority 2000, dated 2001)
Where a SMILES comes first, the peptide text is derived from it.

Key:
[1] = molecular target: gingipain-1 (Porphyromonas gingivalis, UniProt P28784); assay: biochemical; type: biochemical; details: for activity at 100 µM / activity at 1000 µM / activity at 10000 µM: pH 7.5, read-out: Activity -Gly-Gly; for stimulation of amidolytic activity: thiol / reducing compounds; for Activity +Gly-Gly: 0.1 mM compound, 50 mM Gly-Gly
[2] = test system: gingipain-1; assay: biochemical; type: biochemical, Porphyromonas gingivalis; details: Sephadex G-150 peak fractions
[3] = test system: guinea pig skin; type: in vivo; details: 10^-5 M

Chain of gingipain-1 (Porphyromonas gingivalis, UniProt P28784) (P28784 228-719): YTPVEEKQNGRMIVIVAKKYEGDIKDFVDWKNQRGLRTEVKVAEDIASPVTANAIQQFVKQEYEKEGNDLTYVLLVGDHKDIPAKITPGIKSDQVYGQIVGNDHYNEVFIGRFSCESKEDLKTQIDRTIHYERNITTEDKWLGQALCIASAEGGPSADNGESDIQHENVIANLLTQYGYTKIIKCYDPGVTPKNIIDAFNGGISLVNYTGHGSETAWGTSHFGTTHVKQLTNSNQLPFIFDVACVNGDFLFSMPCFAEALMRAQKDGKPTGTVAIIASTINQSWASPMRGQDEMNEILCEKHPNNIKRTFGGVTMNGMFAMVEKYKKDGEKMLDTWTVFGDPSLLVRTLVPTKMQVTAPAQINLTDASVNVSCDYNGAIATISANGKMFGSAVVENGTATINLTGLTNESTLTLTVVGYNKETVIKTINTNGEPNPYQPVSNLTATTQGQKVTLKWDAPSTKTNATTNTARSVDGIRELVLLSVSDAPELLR

Row | Molecule | activity at 100 µM [1] [%] | Activity +Gly-Gly [1] [%] | activity at 1000 µM [1] [%] | activity at 10000 µM [1] [%] | also measured
1 | N[C@@H](CS)C(=O)O [Cysteine] | 685 | – | – | – | stimulation of amidolytic activity [1]: most efficient
2 | OCCS [Mercaptoethanol] | 165 | 627 | 456 | 685 | –
3 | O[C@H](CS)[C@H](O)CS (racemic) [Dithiothreitol] | 159 | 636 | 432 | 685 | –
4 | NCC(N)=O [glycine amide] | – | – | – | – | enhancement of Bz-L-Arg-pNA hydrolytic activity [2]: enhanced many-fold
5 | NCCS [cysteamine] | – | – | – | – | stimulation of amidolytic activity [1]: most efficient
6 | NCC(=O)O [glycine] | – | – | – | – | effect of glycine and glycine analogues on kcat/Km ([1]; preliminary kinetic data, kcat and Km both raised equally): kcat /Km ratio does not change
7 | N[C@@H](CCC(=O)N[C@@H](CS)C(=O)NCC(=O)O)C(=O)O [Glutathione] | 208 | 853 | 593 | 770 | –
8 | NCC(=O)NCC(=O)O [Gly-Gly, glycyl-glycine] (H-Gly-Gly-OH) | – | – | – | – | enhancement of Bz-L-Arg-pNA hydrolytic activity [2]: enhanced many-fold
9 | soybean trypsin inhibitor: soybean trypsin inhibitor (SBTI) (protein, UniProt P01070 25-205, looked up) Trypsin inhibitor A: DFVLDNEGNPLENGGTYYILSDITAFGGIRAAPTGNERCPLTVVQSRNELDKGIGTIISSPYRIRFIAEGHPLSLKFDSFAVIMLCVGIPTEWSVVEDLPEGPAVKIGENKDAMDGWFRLERVSDDEFNNYKLVFCPQQAEDDKCGDIGISIDHDDGTRRLVVSKNKPLVVQFQKLDKESL | – | – | – | – | inhibition of vascular permeability enhancement [3]: inhibited
